Test in all cases: relative viability (nuclei count vs DMSO), 5 days (fraction); higher = more cells survive
Compound in assay [1]: NC(=O)c1ccc(N(C(N)=O)c2c(F)cccc2F)nc1-c1ccc(F)cc1F [VX-702] + NC(=O)Nc1cc(-c2cccc(F)c2)sc1C(=O)N[C@H]1CCCNC1 [AZD7762] (partner 0.2 µM)
Put shortly:
(§1)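 Cells from lung cancer lines were seeded into 1536-well plates and, one day later, dosed by pin tool. Treatments were either a single drug or a fixed dose of an anchor drug with five library-drug doses (not always all listed) in √10 steps. After 5 days, nuclei were stained in a one-step fixation (final 0.05% Triton X-100, 1% formaldehyde, 1 ug/ml Hoechst) and counted on 4× images, and relative viability is the treated-to-vehicle nuclei ratio, as the median of duplicate plates.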

Compound in assay [2]: CC(C)(C)c1nc(-c2cccc(NS(=O)(=O)c3c(F)cccc3F)c2F)c(-c2ccnc(N)n2)s1 [Dabrafenib] + C[C@@H](Oc1cc(-c2cnn(C3CCNCC3)c2)cnc1N)c1c(Cl)ccc(F)c1Cl [Crizotinib] (partner 1 µM)
Put shortly: as §1

Compound in assay [3]: NC(=O)c1ccc(N(C(N)=O)c2c(F)cccc2F)nc1-c1ccc(F)cc1F [VX-702] + CC(C)C[C@H](NC(=O)[C@H](Cc1ccccc1)NC(=O)c1cnccn1)B(O)O [Bortezomib] (partner 0.002 µM)
Put shortly:
as §1

Compound in assay [4]: CC(C)(C)c1nc(-c2cccc(NS(=O)(=O)c3c(F)cccc3F)c2F)c(-c2ccnc(N)n2)s1 [Dabrafenib] + CC(C)C[C@H](NC(=O)[C@H](Cc1ccccc1)NC(=O)c1cnccn1)B(O)O [Bortezomib] (partner 0.002 µM)
Put shortly: as §1

Take NCI-H1395: the relative viability in assay [1] (first compound 0.02 µM) amounted to 0.419; in assay [1] (first compound 0.2 µM), 0.427; in assay [1] (first compound 0.6325 µM), 0.411; in assay [1] (first compound 2 µM), 0.408.
Turning to NCI-H1563, the relative viability turned out to be 0.865 in assay [2] (first compound 0.003 µM); 0.933 in assay [2] (first compound 0.009487 µM); 0.868 in assay [2] (first compound 0.03 µM); 0.908 in assay [2] (first compound 0.09487 µM); 0.953 in assay [2] (first compound 0.3 µM); 0.812 in assay [3] (first compound 0.02 µM). The relative viability in assay [3] (first compound 0.2 µM) was found to be 0.891; in assay [3] (first compound 0.6325 µM), 0.918; in assay [3] (first compound 2 µM), 0.616; in assay [4] (first compound 0.003 µM) it was 0.855; in assay [4] (first compound 0.009487 µM) it was 0.897; in assay [4] (first compound 0.03 µM), 0.687. In addition, the relative viability in assay [4] (first compound 0.09487 µM) is 0.898; in assay [4] (first compound 0.3 µM), 0.929.
Turning to NCI-H1648, the relative viability in assay [1] (first compound 0.02 µM) turned out to be 0.709; in assay [1] (first compound 0.2 µM) it was 0.583; in assay [1] (first compound 0.6325 µM), 0.634; in assay [1] (first compound 2 µM), 0.563.
For the cell line NCI-H1650, the relative viability was determined as 1.04 in assay [2] (first compound 0.003 µM); 1.21 in assay [2] (first compound 0.009487 µM); 0.907 in assay [2] (first compound 0.03 µM); 0.995 in assay [2] (first compound 0.09487 µM); 1.11 in assay [2] (first compound 0.3 µM); 0.195 in assay [3] (first compound 0.02 µM). Also, the relative viability in assay [3] (first compound 0.2 µM) turned out to be 0.207; in assay [3] (first compound 0.6325 µM), 0.189; in assay [3] (first compound 2 µM), 0.185; in assay [4] (first compound 0.003 µM) it was 0.183; in assay [4] (first compound 0.009487 µM), 0.214; in assay [4] (first compound 0.03 µM) it was 0.24. Further, the relative viability in assay [4] (first compound 0.09487 µM) was determined as 0.177; in assay [4] (first compound 0.3 µM), 0.217.
Take NCI-H1793: the relative viability in assay [1] (first compound 0.02 µM) was found to be 0.663; in assay [1] (first compound 0.6325 µM) it was 0.542; in assay [1] (first compound 2 µM), 0.379.
For the cell line NCI-H1944, the relative viability in assay [2] (first compound 0.003 µM) stood at 1.13; in assay [2] (first compound 0.009487 µM), 1.09; in assay [2] (first compound 0.03 µM) it was 1.05; in assay [2] (first compound 0.09487 µM), 0.971; in assay [2] (first compound 0.3 µM), 1.03; in assay [1] (first compound 0.02 µM) it was 0.565. The relative viability was determined as 0.491 in assay [1] (first compound 0.2 µM), 0.557 in assay [1] (first compound 0.6325 µM) and 0.358 in assay [1] (first compound 2 µM).
With NCI-H2009, the relative viability in assay [2] (first compound 0.003 µM) came to 0.973; in assay [2] (first compound 0.009487 µM), 1.01; in assay [2] (first compound 0.03 µM) it was 1.02; in assay [2] (first compound 0.09487 µM) it was 0.697; in assay [2] (first compound 0.3 µM), 0.662; in assay [3] (first compound 0.02 µM), 1.29. In addition, the relative viability in assay [3] (first compound 0.2 µM) stood at 1.15; in assay [3] (first compound 0.6325 µM) it was 1.22; in assay [3] (first compound 2 µM) it was 1.3; in assay [4] (first compound 0.003 µM), 0.342; in assay [4] (first compound 0.009487 µM), 1.06; in assay [4] (first compound 0.03 µM), 0.907. The results for the relative viability in assay [4] (first compound 0.09487 µM) and in assay [4] (first compound 0.3 µM) were 0.554 and 0.517, respectively.
With NCI-H2023, the relative viability amounted to 0.745 in assay [2] (first compound 0.003 µM); 0.651 in assay [2] (first compound 0.009487 µM); 0.651 in assay [2] (first compound 0.03 µM); 0.876 in assay [2] (first compound 0.09487 µM); 0.802 in assay [2] (first compound 0.3 µM); 0.862 in assay [3] (first compound 0.02 µM). The relative viability in assay [3] (first compound 0.2 µM) was 0.946; in assay [3] (first compound 0.6325 µM) it was 1.06; in assay [3] (first compound 2 µM), 0.947; in assay [4] (first compound 0.003 µM), 0.78; in assay [4] (first compound 0.009487 µM), 1.09; in assay [4] (first compound 0.03 µM), 1.04. In addition, the relative viability in assay [4] (first compound 0.09487 µM) came out at 0.977; in assay [4] (first compound 0.3 µM), 1.02.
In the case of NCI-H2170, the relative viability in assay [2] (first compound 0.003 µM) worked out at 1.28; in assay [2] (first compound 0.009487 µM) it was 1.24; in assay [2] (first compound 0.03 µM) it was 0.96; in assay [2] (first compound 0.09487 µM), 1.02; in assay [2] (first compound 0.3 µM), 1.27; in assay [1] (first compound 0.02 µM), 1.05. Besides, the relative viability in assay [1] (first compound 0.2 µM) turned out to be 0.834; in assay [1] (first compound 0.6325 µM) it was 1.08; in assay [1] (first compound 2 µM), 0.941.
As to NCI-H2228, the relative viability came to 0.457 in assay [2] (first compound 0.003 µM); 0.504 in assay [2] (first compound 0.009487 µM); 0.52 in assay [2] (first compound 0.03 µM); 0.495 in assay [2] (first compound 0.09487 µM); 0.571 in assay [2] (first compound 0.3 µM); 1.02 in assay [3] (first compound 0.02 µM). The relative viability in assay [3] (first compound 0.2 µM) worked out at 0.917; in assay [3] (first compound 0.6325 µM) it was 1.31; in assay [3] (first compound 2 µM), 1.04; in assay [4] (first compound 0.003 µM), 0.897; in assay [4] (first compound 0.009487 µM) it was 0.829; in assay [4] (first compound 0.03 µM) it was 0.859. Moreover, the relative viability in assay [4] (first compound 0.09487 µM) amounted to 0.912; in assay [4] (first compound 0.3 µM), 1.03.
As for NCI-H2342, the relative viability in assay [1] (first compound 0.02 µM) turned out to be 0.607; in assay [1] (first compound 0.2 µM) it was 0.644; in assay [1] (first compound 0.6325 µM) it was 0.6; in assay [1] (first compound 2 µM), 0.552.
With SK-LU-1, the relative viability in assay [2] (first compound 0.003 µM) turned out to be 0.742; in assay [2] (first compound 0.009487 µM) it was 0.989; in assay [2] (first compound 0.03 µM) it was 0.769; in assay [2] (first compound 0.09487 µM), 0.778; in assay [2] (first compound 0.3 µM), 0.891; in assay [3] (first compound 0.02 µM) it was 1.15. The relative viability in assay [3] (first compound 0.6325 µM) is 1.19; in assay [3] (first compound 2 µM) it was 1.8; in assay [4] (first compound 0.009487 µM), 1.12; in assay [4] (first compound 0.09487 µM), 0.607; in assay [4] (first compound 0.3 µM) it was 0.871.
With SK-MES-1, the relative viability in assay [2] (first compound 0.003 µM) amounted to 0.919; in assay [2] (first compound 0.009487 µM) it was 0.985; in assay [2] (first compound 0.03 µM), 1.04; in assay [2] (first compound 0.09487 µM), 0.912; in assay [2] (first compound 0.3 µM), 0.962.
With SW 1573, the relative viability in assay [2] (first compound 0.003 µM) was found to be 0.802; in assay [2] (first compound 0.009487 µM), 0.94; in assay [2] (first compound 0.03 µM), 0.697; in assay [2] (first compound 0.09487 µM), 0.755; in assay [2] (first compound 0.3 µM) it was 0.782; in assay [3] (first compound 0.02 µM), 1.02. The relative viability in assay [3] (first compound 0.2 µM) is 0.902; in assay [3] (first compound 0.6325 µM), 0.871; in assay [3] (first compound 2 µM), 1; in assay [4] (first compound 0.003 µM), 1.11; in assay [4] (first compound 0.009487 µM), 1.16; in assay [4] (first compound 0.03 µM), 1.13. The results for the relative viability in assay [4] (first compound 0.09487 µM) and in assay [4] (first compound 0.3 µM) were 0.996 and 1.17, respectively.
On to UMC-11, for which the relative viability in assay [2] (first compound 0.003 µM) amounted to 0.772; in assay [2] (first compound 0.009487 µM) it was 0.636; in assay [2] (first compound 0.03 µM), 0.591; in assay [2] (first compound 0.09487 µM), 0.572; in assay [2] (first compound 0.3 µM) it was 0.596; in assay [3] (first compound 0.02 µM), 0.717. Besides, the relative viability was found to be 0.666 in assay [3] (first compound 0.2 µM); 0.689 in assay [3] (first compound 0.6325 µM); 0.827 in assay [3] (first compound 2 µM); 1.05 in assay [4] (first compound 0.003 µM); 0.637 in assay [4] (first compound 0.009487 µM); 0.647 in assay [4] (first compound 0.03 µM). In addition, the relative viability in assay [4] (first compound 0.09487 µM) was 0.681; in assay [4] (first compound 0.3 µM) it was 0.735.

(Values after the supplement of paper PMC10307832.)
